{"source": "paper PMC12320293", "about": "(2025)", "key": {"[1]": {"tested_on": "miR-31 hairpin (pre-miR-31 residues 20-52) (RNA, miRNA) GGCAUAGCUGUUGAACUGGGAACCUGCUAUGCC", "assay": "STD-NMR", "details": "KH2PO4 50 mM (500 mM in Methods), Mg2+ 1 mM, 10 μM RNA, 200 μM ligand"}, "[2]": {"tested_on": "miR-31 hairpin (pre-miR-31 residues 20-52) (RNA, miRNA) GGCAUAGCUGUUGAACUGGGAACCUGCUAUGCC", "assay": "1H-13C HSQC NMR titration (chemical shift perturbation)", "details": "KH2PO4 50 mM (500 mM in Methods), Mg2+ 1 mM, apparent, pH 7.5, 2% DMSO, 10% D2O, 37 °C"}, "[3]": {"tested_on": "miR-31 hairpin (pre-miR-31 residues 20-52) (RNA, miRNA) GGCAUAGCUGUUGAACUGGGAACCUGCUAUGCC", "assay": "1H-13C HSQC NMR", "details": "KH2PO4 50 mM (500 mM in Methods), Mg2+ 1 mM; ND: no observable change at 10-fold ligand excess; 37 °C"}, "[4]": {"tested_on": "miR-31 hairpin (pre-miR-31 residues 20-52) (RNA, miRNA) GGCAUAGCUGUUGAACUGGGAACCUGCUAUGCC", "assay": "fluorescent indicator displacement", "details": "KH2PO4 50 mM (500 mM in Methods), Mg2+ 1 mM, 100 μM compound, 50.9 nM RNA; for % TO-PRO-1 displaced: TO-PRO-1 500 nM displaced; for binding: TO-PRO-1 500 nM displaced by >15%"}, "[5]": {"tested_on": "miR-31 hairpin (pre-miR-31 residues 20-52) (RNA, miRNA) GGCAUAGCUGUUGAACUGGGAACCUGCUAUGCC", "assay": "1H-13C HSQC NMR titration (peak volumes)", "details": "KH2PO4 50 mM (500 mM in Methods), Mg2+ 1 mM, apparent, pH 7.5, 2% DMSO, 10% D2O, 37 °C, 100 μM RNA"}, "[6]": {"tested_on": "miR-31 hairpin (pre-miR-31 residues 20-52) (RNA, miRNA) GGCAUAGCUGUUGAACUGGGAACCUGCUAUGCC", "assay": "fluorescence titration of dye with RNA", "details": "KH2PO4 50 mM (500 mM in Methods), Mg2+ 1 mM; 500 nM TO-PRO-1, RNA 0-20 μM, pH 7.5, 2% DMSO, room temperature"}}, "data": [{"smiles": "Nc1ccccc1-c1nc2cnccc2[nH]1", "values": [{"measurement": "binding", "setting": "[1]; pH 7.5, 25 °C, not detected by FID at 100 μM", "value": "yes"}, {"measurement": "KD", "setting": "[2]; no saturation at 1 mM", "value": "> >1000 μM"}]}, {"smiles": "COc1ccc(Nc2nc(N)nc(N)c2C#N)cc1", "values": [{"measurement": "binding", "setting": "[1]; pH 7.5, 25 °C", "value": "weak"}, {"measurement": "binding", "setting": "[3]", "value": "weak"}, {"measurement": "% TO-PRO-1 displaced", "setting": "[4]; below 15% hit criterion", "value": "7.6 ± 1.8", "unit": "%"}]}, {"smiles": "Nc1ccc(-c2nc3cncc(N)c3[nH]2)c(O)c1", "values": [{"measurement": "% TO-PRO-1 displaced", "setting": "[4]; 2% DMSO, room temperature", "value": "28.6 ± 0.4", "unit": "%"}, {"measurement": "KD", "setting": "[5]; excess ligand non-specific", "value": "29.10 ± 0.15", "unit": "µM"}]}, {"smiles": "Cc1cccc(Nc2nc(N)nc(N)c2C#N)c1", "values": [{"measurement": "binding", "setting": "[1]; pH 7.5, 25 °C", "value": "weak"}, {"measurement": "binding", "setting": "[3]", "value": "weak"}, {"measurement": "% TO-PRO-1 displaced", "setting": "[4]; below 15% hit criterion", "value": "7.6 ± 2.7", "unit": "%"}]}, {"smiles": "Nc1nc(N)c2c(ccc3[nH]ccc32)n1", "values": [{"measurement": "binding", "setting": "[4]", "value": "yes"}, {"measurement": "KD", "setting": "[5]; non-specific at 10-fold excess", "value": "20.64 ± 9.40", "unit": "µM"}]}, {"smiles": "Nc1cc(Nc2ccc(Br)cc2)nc(N)n1", "values": [{"measurement": "binding", "setting": "[1]; pH 7.5, 2% DMSO, 25 °C", "value": "yes"}, {"measurement": "binding", "setting": "[4]", "value": "yes"}, {"measurement": "KD", "setting": "[2]", "value": "> >1000 μM"}]}, {"smiles": "C[n+]1c(C=C2C=CN(CCC[N+](C)(C)C)c3ccccc32)sc2ccccc21", "values": [{"measurement": "KD", "setting": "[6]", "value": "0.46 ± 0.06", "unit": "µM"}]}]}
